Experimental data as given in ChEMBL document CHEMBL1136031, “8-Aryl xanthines potent inhibitors of phosphodiesterase 5” (Bioorg Med Chem Lett, 2002).
Values after ≈ are worked out from the molar mass of the structure shown.

Columns and labels:
[1] = In vitro microsome metabolism clearance in human was determined; High; assay type: ADME; conditions: microsomes
[2] = In vitro microsome metabolism clearance in rat was determined; assay type: ADME; conditions: microsomes
[3] = Bioavailability; assay type: ADME, organism-based; conditions: rat, in vivo; read-out: BAV
[4] = Partition coefficient (logP); assay type: physicochemical; conditions: octanol/water
[5] = Kinetic solubility at pH 5; ca; assay type: physicochemical; conditions: buffer
[6] = Kinetic solubility at pH 7.4, ca; assay type: physicochemical; conditions: buffer
[7] = target: cGMP-specific 3',5'-cyclic phosphodiesterase (Homo sapiens, UniProt O76074); experiment: Inhibitory activity against human platelet Phosphodiesterase 5 (PDE5)
Phosphodiesterase 6 = experiment: Inhibitory concentration against bovine retina phosphodiesterase 6 activity; assay type: tissue-based
[8] = Ratio of IC50 against human platelet PDE5 to that against bovine retina PDE6
Phosphodiesterase 3 = Phosphodiesterase 3 (Homo sapiens, UniProt Q14432+Q13370); experiment: Inhibition of human platelet Phosphodiesterase 3
Phosphodiesterase 1 = Phosphodiesterase 1 (Bos taurus, UniProt Q01061+P14100); experiment: Inhibition of bovine heart Phosphodiesterase 1 (PDE1); assay type: protein assay
[9] = Volume in steady state distribution value was determined; assay type: ADME, organism-based; conditions: rat, in vivo; read-out: Vss
[10] = The pharmacokinetic property, Half-life was determined; assay type: ADME, organism-based; conditions: rat, in vivo
Homo sapiens = species: Homo sapiens; experiment: Caco-2 permeability was determined; assay type: ADME
[11] = Kinetic solubility at pH 7.4; assay type: physicochemical; conditions: buffer
[12] = Kinetic solubility at pH 5; assay type: physicochemical; conditions: caco-2, pH 5
[13] = In vitro microsome metabolism clearance in human was determined; assay type: ADME; conditions: microsomes
Caco-2 [14] = experiment: Caco-2 permeability as biopharmaceutical property; assay type: functional, cell-based; conditions: Homo sapiens
Caco-2 [15] = experiment: Caco 2 permeability is determined; assay type: functional, cell-based; conditions: Homo sapiens
[16] = Log D value at pH 7.4; assay type: physicochemical; conditions: buffer
[17] = The pharmacokinetic property, Half-life in rat in vivo; assay type: ADME, organism-based
[18] = Kinetic solubility at pH 5.9; assay type: physicochemical; conditions: buffer
[19] = Kinetic solubility at pH 6.9, ca; assay type: physicochemical; conditions: buffer
[20] = Kinetic solubility at pH 5, ca; assay type: physicochemical; conditions: buffer

IC50 [7] [nM]	IC50 (Phosphodiesterase 6) [nM]	Ratio [8]	Structure (SMILES)	further results
3			CCCOc1ccc(S(=O)(=O)N2CCC(CCO)CC2)cc1-c1nc2c([nH]1)c(=O)n(C)c(=O)n2CC(C)C	Cl [1]: High; microsomal CLint [2]: 226 µL/min/mg; bioavailability [3]: 0%; logP [4]: 3.67; solubility kinetic [5]: 5 µg/mL (≈ 9.13 µM); solubility kinetic [6]: 5 µg/mL (≈ 9.13 µM)
> 10000			CC(C)Cn1c(=O)n(C)c(=O)c2[nH]c(-c3ccccc3O)nc21	
26			CCOc1ccc(S(=O)(=O)N2CCN(CC)CC2)cc1-c1nc2c([nH]1)c(=O)n(C)c(=O)n2CC(C)C	
	16	3	CCCOc1ccc(S(N)(=O)=O)cc1-c1nc2c(=O)n(C)c(=O)n(CC(C)C)c2[nH]1	
59	1210		CCOc1ccc(S(=O)(=O)N2CCN(C)CC2)cc1-c1nc2c(=O)n(C)c(=O)n(Cc3ccc(OC)cc3)c2[nH]1	IC50 (Phosphodiesterase 3): > 10000 nM; IC50 (Phosphodiesterase 1): 4520 nM
1500			COCCOc1ccccc1-c1nc2c([nH]1)c(=O)n(C)c(=O)n2CC(C)C	
	68	3.5	CCOc1ccc(S(=O)(=O)N2CCN(CCO)CC2)cc1-c1nc2c(=O)n(C)c(=O)n(CC(C)C)c2[nH]1	
551			CCCCCOc1ccccc1-c1nc2c([nH]1)c(=O)n(C)c(=O)n2CC(C)C	
	91	7.5	CCCOc1ccc(S(=O)(=O)N2CCN(CCOC)CC2)cc1-c1nc2c(=O)n(C)c(=O)n(CC(C)C)c2[nH]1	
24			CCCOc1ccc(S(=O)(=O)N2CCN(CCN(C)C)CC2)cc1-c1nc2c([nH]1)c(=O)n(C)c(=O)n2CC(C)C	
> 10000			CC(C)Cn1c(=O)n(C)c(=O)c2[nH]c(-c3ccccc3F)nc21	
5			CCCOc1ccc(S(N)(=O)=O)cc1-c1nc2c([nH]1)c(=O)n(C)c(=O)n2CC(C)C	
135			CCCCOc1ccccc1-c1nc2c([nH]1)c(=O)n(C)c(=O)n2CC(C)C	
91	2380		CCOc1ccc(S(=O)(=O)N2CCN(C)CC2)cc1-c1nc2c(=O)n(C)c(=O)n(CC(C)(C)C)c2[nH]1	IC50 (Phosphodiesterase 3): 5570 nM
63			CCOc1ccc(S(=O)(=O)N2CCN(CCN(C)C)CC2)cc1-c1nc2c([nH]1)c(=O)n(C)c(=O)n2CC(C)C	
5420			CSc1ccccc1-c1nc2c(=O)n(C)c(=O)n(CC(C)C)c2[nH]1	
9	83		CCOc1ccc(S(=O)(=O)N2CCN(C)CC2)cc1-c1nc2c(=O)n(C)c(=O)n(CC(C)CC)c2[nH]1 (stereo not given)	microsomal CLint [2]: 178 µL/min/mg; Vd [9]: 9.7 L/kg; bioavailability [3]: 11%; half-life [10]: 1.53 h; logP [4]: 3.81; Papp (Homo sapiens): 34.5 ×10⁻⁶ cm/s; solubility kinetic [11]: 100 µg/mL (≈ 193 µM); solubility kinetic [12]: > 200 µg/mL; IC50 (Phosphodiesterase 3): 6030 nM; IC50 (Phosphodiesterase 1): > 10000 nM; microsomal CLint [13]: 114 µL/min/mg
16	77	5	CC(C)Cn1c(=O)n(C)c(=O)c2[nH]c(-c3cc(S(=O)(=O)N4CCN(C)CC4)ccc3OC(C)C)nc21	
105			CC(C)COc1ccccc1-c1nc2c([nH]1)c(=O)n(C)c(=O)n2CC(C)C	
> 10000			CC(C)Cn1c(=O)n(C)c(=O)c2[nH]c(-c3ccccc3)nc21	
	146	2.5	CCOc1ccc(S(=O)(=O)N2CCN(CCN(C)C)CC2)cc1-c1nc2c(=O)n(C)c(=O)n(CC(C)C)c2[nH]1	
3.5	15	4	CCCOc1ccc(S(=O)(=O)N2CCN(CCO)CC2)cc1-c1nc2c(=O)n(C)c(=O)n(CC(C)C)c2[nH]1	
	203	7.5	CCOc1ccc(S(=O)(=O)N2CCN(CC)CC2)cc1-c1nc2c(=O)n(C)c(=O)n(CC(C)C)c2[nH]1	
93			CC(C)COc1ccc(S(=O)(=O)N2CCN(C)CC2)cc1-c1nc2c([nH]1)c(=O)n(C)c(=O)n2CC(C)C	
73	227	3.1	CCOc1ccccc1-c1nc2c(=O)n(C)c(=O)n(CC(C)C)c2[nH]1	
12			CCCOc1ccc(S(=O)(=O)N2CCN(CCOC)CC2)cc1-c1nc2c([nH]1)c(=O)n(C)c(=O)n2CC(C)C	

IC50 [7] [nM]	IC50 (Phosphodiesterase 6) [nM]	Ratio [8]	Structure (SMILES)	further results
77	214	2.8	CC(C)Cn1c(=O)n(C)c(=O)c2[nH]c(-c3ccccc3OC(C)C)nc21	
19			CCOc1ccc(S(=O)(=O)N2CCN(CCO)CC2)cc1-c1nc2c([nH]1)c(=O)n(C)c(=O)n2CC(C)C	
100	345		CCCn1c(=O)n(C)c(=O)c2[nH]c(-c3cc(S(=O)(=O)N4CCN(C)CC4)ccc3OCC)nc21	
	37	1.5	CCCOc1ccc(S(=O)(=O)N2CCN(CCN(C)C)CC2)cc1-c1nc2c(=O)n(C)c(=O)n(CC(C)C)c2[nH]1	
	102	1.1	CC(C)COc1ccc(S(=O)(=O)N2CCN(C)CC2)cc1-c1nc2c(=O)n(C)c(=O)n(CC(C)C)c2[nH]1	
5.5			CCCOc1ccc(S(=O)(=O)N2CCN(CC)CC2)cc1-c1nc2c([nH]1)c(=O)n(C)c(=O)n2CC(C)C	
	436	3.2	CCCCOc1ccccc1-c1nc2c(=O)n(C)c(=O)n(CC(C)C)c2[nH]1	
16	1150	72	CCCOc1ccc(S(=O)(=O)N(C)CCN(C)C)cc1-c1nc2c(=O)n(C)c(=O)n(CC(C)C)c2[nH]1	logP [4]: 4.9; Papp (Caco-2 [14]): 0.3 ×10⁻⁶ cm/s
130			CCCCCCn1c(=O)n(C)c(=O)c2[nH]c(-c3cc(S(=O)(=O)N4CCN(C)CC4)ccc3OCC)nc21	
> 10000			CNc1ccccc1-c1nc2c([nH]1)c(=O)n(C)c(=O)n2CC(C)C	
60	87	1.4	CCCOc1ccccc1-c1nc2c(=O)n(C)c(=O)n(CC(C)C)c2[nH]1	
315			CCOc1ccc(S(=O)(=O)N2CCN(C)CC2)cc1-c1nc2c(=O)[nH]c(=O)n(CC(C)C)c2[nH]1	IC50 (Phosphodiesterase 3): > 10000 nM; IC50 (Phosphodiesterase 1): > 10000 nM
28	217		CCOc1ccc(S(=O)(=O)N2CCN(C)CC2)cc1-c1nc2c(=O)n(C)c(=O)n(CC3CC3)c2[nH]1	IC50 (Phosphodiesterase 3): > 10000 nM; IC50 (Phosphodiesterase 1): > 10000 nM
160			CCOc1ccc(S(=O)(=O)N2CCN(C)CC2)cc1-c1nc2c(=O)n(C)c(=O)n(CC3CCCCC3)c2[nH]1	
	17	5.5	CCCOc1ccc(S(=O)(=O)N2CCC(CCO)CC2)cc1-c1nc2c(=O)n(C)c(=O)n(CC(C)C)c2[nH]1	Papp (Caco-2 [14]): 13.2 ×10⁻⁶ cm/s
> 10000			CC(C)Cn1c(=O)n(C)c(=O)c2[nH]c(-c3ccccc3OCc3ccccc3)nc21	
	100	4.9	CCOc1ccc(S(=O)(=O)N2CCN(C)CC2)cc1-c1nc2c(=O)n(C)c(=O)n(CC(C)C)c2[nH]1	Papp (Caco-2 [15]): 25 ×10⁻⁶ cm/s; IC50 (Phosphodiesterase 3): > 10000 nM; IC50 (Phosphodiesterase 1): 3380 nM
11	242	22	CCCOc1ccc(S(=O)(=O)N(CC)CCN(C)C)cc1-c1nc2c(=O)n(C)c(=O)n(CC(C)C)c2[nH]1	
10	6	0.6	CCCOc1ccc(S(=O)(=O)N2CCN(C)CC2)cc1-c1nc2c(=O)n(C)c(=O)n(CC(C)C)c2[nH]1	
	3	0.5	CCCOc1ccc(S(=O)(=O)N2CCN(CC)CC2)cc1-c1nc2c(=O)n(C)c(=O)n(CC(C)C)c2[nH]1	
			CCOc1ccc(S(=O)(=O)N2CCN(C)CC2)cc1-c1nc2c([nH]1)c(=O)n(C)c(=O)n2CC(C)C	Vd [9]: 9.7 L/kg; bioavailability [3]: 11%; logD [16]: 3.15; half-life [17]: 1.53 h; logP [4]: 3.26; solubility kinetic [18]: > 160 µg/mL; solubility kinetic [19]: 30 µg/mL (≈ 59.5 µM)
> 10000			CCOc1ccc(S(=O)(=O)N2CCN(C)CC2)cc1-c1nc2c([nH]1)c(=O)[nH]c(=O)n2C	
3.5	14	4	CCCOc1ccc(S(=O)(=O)N2CCN(C(=O)N(C)C)CC2)cc1-c1nc2c(=O)n(C)c(=O)n(CC(C)C)c2[nH]1	microsomal CLint [2]: 185 µL/min/mg; Vd [9]: 3.4 L/kg; bioavailability [3]: 0%; half-life [10]: 0.367 h; logP [4]: 4.04; solubility kinetic [20]: 25 µg/mL (≈ 43.4 µM); solubility kinetic [6]: 25 µg/mL (≈ 43.4 µM); Papp (Caco-2 [14]): 22.9 ×10⁻⁶ cm/s; microsomal CLint [13]: 71 µL/min/mg
100	5600		C=CCCn1c(=O)n(C)c(=O)c2nc(-c3cc(S(=O)(=O)N4CCN(C)CC4)ccc3OCC)[nH]c21	IC50 (Phosphodiesterase 3): > 10000 nM; IC50 (Phosphodiesterase 1): > 10000 nM
> 10000			CC(C)Cn1c(=O)n(C)c(=O)c2[nH]c(-c3ccccc3N(C)C)nc21	
	73	0.7	CC(C)COc1ccccc1-c1nc2c(=O)n(C)c(=O)n(CC(C)C)c2[nH]1	
